According to ChEMBL document CHEMBL1158409, “Discovery of 3,5-disubstituted-1H-pyrrolo[2,3-b]pyridines as potent inhibitors of the insulin-like growth factor-1 receptor (IGF-1R) tyrosine kinase” (Bioorg Med Chem Lett, 2009):

Experiments:
[1] = target: T1, Insulin-like growth factor 1 receptor (Homo sapiens, UniProt P08069); assay: Inhibition of GST-tagged human IGF1R expressed in Sf9-baculovirus system
[2] = target: T1, Insulin-like growth factor 1 receptor; assay: Inhibition of IGF1-induced human IGF1R phosphorylation expressed in mouse NIH-3T3 cells treated 2 hrs prior to IGF1 challenge by DELFIA
[3] = target: T2, Inhibitor of nuclear factor kappa-B kinase subunit alpha (Homo sapiens, UniProt O15111); assay: Inhibition of IKK1
T2 sequence (O15111 whole entry): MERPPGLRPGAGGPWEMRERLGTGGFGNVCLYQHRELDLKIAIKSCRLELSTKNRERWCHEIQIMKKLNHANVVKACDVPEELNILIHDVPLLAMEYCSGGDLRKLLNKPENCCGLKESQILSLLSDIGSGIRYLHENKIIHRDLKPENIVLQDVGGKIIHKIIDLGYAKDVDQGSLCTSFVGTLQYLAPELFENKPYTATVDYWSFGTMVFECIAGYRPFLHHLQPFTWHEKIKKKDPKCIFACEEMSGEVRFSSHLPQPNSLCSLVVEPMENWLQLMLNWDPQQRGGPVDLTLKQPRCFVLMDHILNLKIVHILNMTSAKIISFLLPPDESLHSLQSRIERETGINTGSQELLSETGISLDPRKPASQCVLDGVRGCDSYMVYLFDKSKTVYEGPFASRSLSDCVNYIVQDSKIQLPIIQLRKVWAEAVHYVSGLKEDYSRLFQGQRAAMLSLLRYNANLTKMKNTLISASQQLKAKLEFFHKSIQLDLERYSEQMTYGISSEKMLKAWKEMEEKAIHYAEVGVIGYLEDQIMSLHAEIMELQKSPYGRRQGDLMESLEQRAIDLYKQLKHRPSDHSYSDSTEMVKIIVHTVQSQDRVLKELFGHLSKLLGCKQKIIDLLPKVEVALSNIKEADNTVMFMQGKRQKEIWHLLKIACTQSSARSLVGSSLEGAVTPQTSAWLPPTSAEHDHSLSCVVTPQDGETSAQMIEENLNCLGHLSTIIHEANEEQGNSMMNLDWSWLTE

[4] = target: T3, Inhibitor of nuclear factor kappa-B kinase subunit beta (Homo sapiens, UniProt O14920); assay: Inhibition of IKK2
T3 sequence (O14920 whole entry): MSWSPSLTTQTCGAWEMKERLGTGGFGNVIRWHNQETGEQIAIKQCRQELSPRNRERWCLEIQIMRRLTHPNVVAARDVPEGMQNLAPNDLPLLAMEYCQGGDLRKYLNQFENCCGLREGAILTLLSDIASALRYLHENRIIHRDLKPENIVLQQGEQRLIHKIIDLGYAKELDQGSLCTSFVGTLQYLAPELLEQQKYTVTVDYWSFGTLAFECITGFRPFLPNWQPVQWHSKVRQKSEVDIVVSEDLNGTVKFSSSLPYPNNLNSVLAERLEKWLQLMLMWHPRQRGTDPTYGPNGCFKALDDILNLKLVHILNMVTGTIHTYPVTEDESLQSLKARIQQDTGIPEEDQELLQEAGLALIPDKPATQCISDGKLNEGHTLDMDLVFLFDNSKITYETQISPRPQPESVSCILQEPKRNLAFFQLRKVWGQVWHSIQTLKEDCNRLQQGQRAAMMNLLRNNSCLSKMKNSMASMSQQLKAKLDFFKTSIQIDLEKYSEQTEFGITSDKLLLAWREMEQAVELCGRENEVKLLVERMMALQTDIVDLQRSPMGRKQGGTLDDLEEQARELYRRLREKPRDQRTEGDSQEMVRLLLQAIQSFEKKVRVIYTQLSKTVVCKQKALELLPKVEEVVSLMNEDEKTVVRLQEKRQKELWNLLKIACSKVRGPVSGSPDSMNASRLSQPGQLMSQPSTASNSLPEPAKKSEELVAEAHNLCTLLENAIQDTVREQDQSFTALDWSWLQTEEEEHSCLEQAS

[5] = target: Mitogen-activated protein kinase 8 (Homo sapiens, UniProt P45983); assay: Inhibition of JNK1
Chain of Mitogen-activated protein kinase 8 (P45983 whole entry): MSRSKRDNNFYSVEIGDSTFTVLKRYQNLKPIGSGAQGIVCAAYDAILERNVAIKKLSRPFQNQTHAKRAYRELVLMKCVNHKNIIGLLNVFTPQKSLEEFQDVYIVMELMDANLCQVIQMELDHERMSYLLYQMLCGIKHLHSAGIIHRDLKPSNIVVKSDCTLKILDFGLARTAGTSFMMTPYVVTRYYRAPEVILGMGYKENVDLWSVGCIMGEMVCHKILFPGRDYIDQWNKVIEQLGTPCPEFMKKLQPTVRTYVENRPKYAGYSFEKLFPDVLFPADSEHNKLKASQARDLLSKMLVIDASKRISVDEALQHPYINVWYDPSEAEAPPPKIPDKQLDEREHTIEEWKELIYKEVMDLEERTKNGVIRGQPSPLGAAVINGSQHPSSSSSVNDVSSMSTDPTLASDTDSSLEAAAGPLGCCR

[6] = target: Mitogen-activated protein kinase 10 (Homo sapiens, UniProt P53779); assay: Inhibition of JNK3
Chain of Mitogen-activated protein kinase 10 (P53779 whole entry): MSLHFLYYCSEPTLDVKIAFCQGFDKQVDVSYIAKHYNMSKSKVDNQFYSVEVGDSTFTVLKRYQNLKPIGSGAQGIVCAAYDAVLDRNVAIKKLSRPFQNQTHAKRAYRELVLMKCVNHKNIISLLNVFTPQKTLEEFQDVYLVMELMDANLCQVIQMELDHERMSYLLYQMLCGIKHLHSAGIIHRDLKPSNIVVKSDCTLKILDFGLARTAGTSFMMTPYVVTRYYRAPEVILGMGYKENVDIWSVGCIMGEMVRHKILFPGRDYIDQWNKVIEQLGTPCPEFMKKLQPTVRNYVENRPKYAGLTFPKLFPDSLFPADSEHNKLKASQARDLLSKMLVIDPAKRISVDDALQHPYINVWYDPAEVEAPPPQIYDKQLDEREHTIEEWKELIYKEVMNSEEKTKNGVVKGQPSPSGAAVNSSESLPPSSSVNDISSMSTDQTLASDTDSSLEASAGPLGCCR

[7] = target: Tyrosine-protein kinase Lyn (Homo sapiens, UniProt P07948); assay: Inhibition of LYN
Chain of Tyrosine-protein kinase Lyn (P07948 whole entry): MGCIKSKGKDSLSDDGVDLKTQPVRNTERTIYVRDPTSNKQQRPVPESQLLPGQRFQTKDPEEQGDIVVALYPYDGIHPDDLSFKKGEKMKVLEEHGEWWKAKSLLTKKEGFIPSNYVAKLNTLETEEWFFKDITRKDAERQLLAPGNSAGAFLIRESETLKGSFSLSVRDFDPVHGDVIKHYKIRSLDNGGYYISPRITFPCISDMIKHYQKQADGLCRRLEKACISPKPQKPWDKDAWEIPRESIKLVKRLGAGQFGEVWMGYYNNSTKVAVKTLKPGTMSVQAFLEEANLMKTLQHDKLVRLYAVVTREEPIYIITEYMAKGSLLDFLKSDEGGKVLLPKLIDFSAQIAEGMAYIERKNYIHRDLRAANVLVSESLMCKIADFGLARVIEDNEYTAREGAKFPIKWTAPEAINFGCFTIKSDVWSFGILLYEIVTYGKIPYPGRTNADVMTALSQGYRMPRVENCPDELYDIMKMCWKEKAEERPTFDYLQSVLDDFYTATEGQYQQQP

[8] = target: Tyrosine-protein kinase SYK (Homo sapiens, UniProt P43405); assay: Inhibition of SYK

T1 sequence (P08069 31-736 limits assumed): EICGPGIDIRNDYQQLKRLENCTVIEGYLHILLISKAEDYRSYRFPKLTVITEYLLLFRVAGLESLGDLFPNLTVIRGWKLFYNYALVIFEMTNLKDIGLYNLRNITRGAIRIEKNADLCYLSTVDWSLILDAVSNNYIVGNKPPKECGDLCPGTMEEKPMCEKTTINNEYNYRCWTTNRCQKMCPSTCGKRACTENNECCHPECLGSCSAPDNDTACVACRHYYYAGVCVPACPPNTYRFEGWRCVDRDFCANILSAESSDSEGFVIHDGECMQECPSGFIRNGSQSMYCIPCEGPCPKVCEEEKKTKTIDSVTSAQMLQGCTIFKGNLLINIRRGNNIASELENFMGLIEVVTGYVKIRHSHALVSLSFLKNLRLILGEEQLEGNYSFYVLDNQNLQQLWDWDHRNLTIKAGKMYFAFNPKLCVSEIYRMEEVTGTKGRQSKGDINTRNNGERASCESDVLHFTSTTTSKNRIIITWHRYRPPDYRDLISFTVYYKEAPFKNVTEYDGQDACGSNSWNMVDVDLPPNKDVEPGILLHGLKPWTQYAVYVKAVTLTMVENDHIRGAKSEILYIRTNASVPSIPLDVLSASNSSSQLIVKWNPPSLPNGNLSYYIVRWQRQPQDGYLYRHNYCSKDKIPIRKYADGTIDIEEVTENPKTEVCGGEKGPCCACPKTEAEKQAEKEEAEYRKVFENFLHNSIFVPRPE
T1 sequence (P08069 741-1367 limits assumed): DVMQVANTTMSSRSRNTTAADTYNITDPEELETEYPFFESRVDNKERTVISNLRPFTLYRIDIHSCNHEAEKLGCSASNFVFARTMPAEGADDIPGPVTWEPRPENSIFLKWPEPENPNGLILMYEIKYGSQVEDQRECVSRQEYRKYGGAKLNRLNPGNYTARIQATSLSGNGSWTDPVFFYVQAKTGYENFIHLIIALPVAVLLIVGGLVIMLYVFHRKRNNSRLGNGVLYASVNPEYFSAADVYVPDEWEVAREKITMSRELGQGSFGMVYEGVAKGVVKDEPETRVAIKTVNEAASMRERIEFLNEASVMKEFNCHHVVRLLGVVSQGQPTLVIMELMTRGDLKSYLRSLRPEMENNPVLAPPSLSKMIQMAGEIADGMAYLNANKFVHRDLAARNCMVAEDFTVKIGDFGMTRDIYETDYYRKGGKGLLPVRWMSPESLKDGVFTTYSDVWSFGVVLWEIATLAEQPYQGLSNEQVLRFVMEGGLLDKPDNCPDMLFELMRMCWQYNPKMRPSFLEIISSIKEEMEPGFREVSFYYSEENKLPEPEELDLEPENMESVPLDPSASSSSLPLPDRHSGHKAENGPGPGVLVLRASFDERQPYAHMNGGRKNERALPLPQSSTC

Compound	IC50 [1]	IC50 [2]	also measured
Nc1cccc(-c2cnc3[nH]cc(-c4cccc(NC(=O)Nc5ccc(C(F)(F)F)cc5F)c4)c3c2)c1	242 nM		
CN1CCN(C(=O)c2cccc(-c3cnc4[nH]cc(-c5cccc(NC(=O)Nc6ccc(C(F)(F)F)cc6F)c5)c4c3)c2)CC1	335 nM		
O=C(O)CCc1ccc(-c2cnc3[nH]cc(-c4cccc(NC(=O)Nc5ccccc5Oc5ccccc5)c4)c3c2)cc1	210 nM	3620 nM	
O=C(Nc1cccc(-c2c[nH]c3ncc(-c4ccccc4)cc23)c1)Nc1ccc(C(F)(F)F)cc1F	1260 nM		
Nc1ccc(-c2cnc3[nH]cc(-c4cccc(NC(=O)Nc5ccc(C(F)(F)F)cc5F)c4)c3c2)cc1	200 nM		
COc1ccc(-c2cnc3[nH]cc(-c4cccc(NC(=O)Nc5ccc(C(F)(F)F)cc5F)c4)c3c2)cc1OC	2200 nM		
CN1CCN(C(=O)c2ccc(-c3cnc4[nH]cc(-c5cccc(NC(=O)Nc6ccc(C(F)(F)F)cc6F)c5)c4c3)cc2)CC1	286 nM		
O=C(Nc1ccccc1)Nc1cccc(-c2c[nH]c3ncc(-c4ccccc4)cc23)c1	749 nM		
O=C(Nc1cccc(-c2c[nH]c3ncc(-c4cccc(F)c4)cc23)c1)Nc1ccc(C(F)(F)F)cc1F	605 nM		
O=C(Nc1cccc(-c2c[nH]c3ncc(-c4ccoc4)cc23)c1)Nc1ccccc1Oc1ccccc1	251 nM	1260 nM	
O=C(Nc1cccc(Cl)c1)Nc1cccc(-c2c[nH]c3ncc(-c4ccccc4)cc23)c1	1020 nM		
CN(C)C(=O)c1cccc(-c2cnc3[nH]cc(-c4cccc(NC(=O)Nc5ccc(Oc6ccccc6)cc5)c4)c3c2)c1	2040 nM	3070 nM	
CN(C)C(=O)c1cccc(-c2cnc3[nH]cc(-c4cccc(NC(=O)Nc5cccc(Oc6ccccc6)c5)c4)c3c2)c1	212 nM	961 nM	
CN(C)S(=O)(=O)c1ccc(-c2cnc3[nH]cc(-c4cccc(NC(=O)Nc5ccccc5Oc5ccccc5)c4)c3c2)cc1		20800 nM	

Continued by falling IC50 [1], values first:

IC50 [1]	IC50 [2]	Compound	also measured
184 nM	1040 nM	O=C(Nc1cccc(-c2c[nH]c3ncc(-c4cccc(C(=O)O)c4)cc23)c1)Nc1ccccc1Oc1ccccc1	
132 nM	517 nM	CN(C)C(=O)c1cccc(-c2cnc3[nH]cc(-c4cccc(NC(=O)Nc5ccccc5OCc5ccccc5)c4)c3c2)c1	
127 nM	693 nM	O=C(Nc1cccc(-c2c[nH]c3ncc(-c4ccccc4)cc23)c1)Nc1ccccc1Oc1ccccc1	
67 nM		CN(C)CCNC(=O)c1cccc(-c2cnc3[nH]cc(-c4cccc(NC(=O)Nc5ccc(C(F)(F)F)cc5F)c4)c3c2)c1	
57 nM	1120 nM	CN(C)S(=O)(=O)c1cccc(-c2cnc3[nH]cc(-c4cccc(NC(=O)Nc5ccccc5Oc5ccccc5)c4)c3c2)c1	
50 nM		NCc1ccc(-c2cnc3[nH]cc(-c4cccc(NC(=O)Nc5ccc(C(F)(F)F)cc5F)c4)c3c2)cc1	IC50 [3]: 32 nM; IC50 [4]: 79 nM; IC50 [5]: 79 nM; IC50 [6]: 250 nM; IC50 [7]: 40 nM; IC50 [8]: 80 nM
39 nM	407 nM	CN(C)C(=O)c1cccc(-c2cnc3[nH]cc(-c4cccc(NC(=O)Nc5ccccc5Nc5ccccc5)c4)c3c2)c1	
36 nM		CN(C)CCNC(=O)c1ccc(-c2cnc3[nH]cc(-c4cccc(NC(=O)Nc5ccc(C(F)(F)F)cc5F)c4)c3c2)cc1	
31 nM	128 nM	CN(C)C(=O)c1ccc(-c2cnc3[nH]cc(-c4cccc(NC(=O)Nc5ccccc5Oc5ccccc5)c4)c3c2)cc1	
21 nM	68 nM	CN(C)C(=O)c1cccc(-c2cnc3[nH]cc(-c4cccc(NC(=O)Nc5ccccc5Oc5ccccc5)c4)c3c2)c1	
20 nM		NCc1ccc(-c2cnc3[nH]cc(-c4cccc(NC(=O)Nc5cccc(Cl)c5)c4)c3c2)cc1	
4 nM		CN(C)CCNC(=O)c1cccc(-c2cnc3[nH]cc(-c4cccc(NC(=O)Nc5ccccc5Oc5ccccc5)c4)c3c2)c1	
4 nM	415 nM	CN(C)CCNC(=O)c1ccc(-c2cnc3[nH]cc(-c4cccc(NC(=O)Nc5ccccc5Oc5ccccc5)c4)c3c2)cc1	
